Source: US20260130933A1, “PHARMACEUTICAL COMPOSITION FOR PREVENTION OR TREATMENT OF NEPHROPATHY AND/OR DIABETES MELLITUS, COMPRISING ENAVOGLIFLOZIN” (DAEWOONG PHARMACEUTICAL CO., LTD., priority 2022, published 2026)

Assay: Example 3: phase 3 trial, enavogliflozin 0.3 mg vs dapagliflozin 10 mg once a day for 24 weeks added to metformin and gemigliptin in patients with type 2 diabetes (same endpoints, rescue drug)
Assay type: in vivo, human
Description: 1) when Metformin (≥1,000 mg/Day) was Administered at a Constant Dose for at Least 8 Weeks Prior to Pre-Visit (Pre-Screening) • Metformin (≥1,000 mg/day) and gemigliptin (50 mg/day) were co-administered during the 8-week stabilization period. […] 4) when Metformin (≥1,000 mg/Day) and Gemigliptin (50 mg/Day) were Co-Administered at Constant Doses for at Least 8 Weeks Prior to Pre-Visit (Prescreening) • Without a separate stabilization period, Pre-visit (pre-screening) was Visit 1 (screening).
Subjects who met the inclusion/exclusion criteria continued to receive metformin and gemigliptin while receiving a placebo of the clinical trial drug in a single-blind (subject-blinded) state for a 2-week run-in period.
Here, the randomized subjects were stratified according to the administration therapy (co-administration with two or less agents (one or two agents) or three or more agents) of a conventional hypoglycemic agent (before washout of another hypoglycemic agent) within 24 weeks prior to obtaining written informed consent and by an HbA1c value (<8% or ≥8%) at Visit 1 (screening) measured in the central laboratory.
The randomized subjects were administered two tablets of the clinical trial drug corresponding to each administration group once a day, and then visited the institution at weeks 6, 12, 18, and 24 during the 24-week administration period to conduct efficacy and safety assessments. In addition, during the clinical trial period, they were instructed to exercise regularly and control their diet without changing their daily life patterns.
• 1) Change in HbA1c at week 24 after administration of clinical trial drug compared to Visit 2 (randomization)
• 1) Change in HbA1c at each time point of weeks 6, 12, and 18 after administration of clinical trial drug compared to Visit 2 (randomization) • 2) Change in FPG at each time point of weeks 6, 12, 18, and 24 after administration of clinical trial drug compared to Visit 2 (randomization) • 3) Proportion of subjects achieving HbA1c<7% at each time point of weeks 6, 12, 18, and 24 after administration of clinical trial drug • 4) Proportion of subjects achieving HbA1c<6.5% at each time point of weeks 6, 12, 18, and 24 after administration of clinical trial drug • 5) Proportion of subjects achieving therapeutic response (HbA1c change (HbA1c at Visit 2—HbA1c at each evaluation time point)>0.5% or HbA1c<7% at each evaluation time point compared to Visit 2 (randomization)) at each time point of weeks 6, 12, 18, and 24 after administration of clinical trial drug • 6) Proportion of subjects achieving therapeutic response (HbA1c change (HbA1c at Visit 2—HbA1c at each evaluation time point)>0.7% or HbA1c<7% at each evaluation time point compared to Visit 2 (randomization)) at each time point of weeks 6, 12, 18, and 24 after administration of clinical trial drug • 7) Proportion of subjects achieving therapeutic response (HbA1c change (HbA1c at Visit 2—HbA1c at each evaluation time point)>1% or HbA1c<7% at each evaluation time point compared to Visit 2 (randomization)) at each time point of weeks 6, 12, 18, and 24 after administration of clinical trial drug

[1] = week 6, per-protocol set, enavogliflozin 0.3 mg, dapagliflozin 10 mg
[2] = week 12, modified per-protocol set 1, enavogliflozin 0.3 mg, dapagliflozin 10 mg
[3] = week 12, modified per-protocol set 2
[4] = week 12, modified per-protocol set 2, enavogliflozin 0.3 mg, dapagliflozin 10 mg
[5] = week 12, per-protocol set, enavogliflozin 0.3 mg, dapagliflozin 10 mg

CCOc1ccc(Cc2cc([C@@H]3O[C@H](CO)[C@@H](O)[C@H](O)[C@H]3O)ccc2Cl)cc1 [Dapagliflozin, reference compound]
HbA1c, Median [1]: 6.96%
Subjects achieving HbA1c target of <6.5%, (%) [1]: 15.57%
Subjects achieving HbA1c target of <7%, % [1]: 51.64%
body weight, Median [1]: 63.90 kg
Subjects achieving therapeutic glycemic response 1, % (week 6, per-protocol set, response 1 = HbA1c change >0.5% or HbA1c <7%, enavogliflozin 0.3 mg, dapagliflozin 10 mg): 81.97%
Subjects achieving therapeutic glycemic response 2, % (week 6, per-protocol set, response 2 = HbA1c change >0.7% or HbA1c <7%, enavogliflozin 0.3 mg, dapagliflozin 10 mg): 76.23%
Subjects achieving therapeutic glycemic response 3, % (week 6, per-protocol set, response 3 = HbA1c change >1% or HbA1c <7%, enavogliflozin 0.3 mg, dapagliflozin 10 mg): 63.93%
FPG change from baseline, LS mean (SE) (week 12): −24.42(1.50) mg/dL
HDL-C change from baseline, LS mean (SE) (week 12): 2.84(0.60) mg/dL
HOMA-β change from baseline, LS mean (SE) (week 12): 5.23(1.90)
HbA1c change from baseline, LS mean (SE) (week 12): −0.83(0.04) % p
LDL-C change from baseline, LS mean (SE) (week 12): 2.71(1.75) mg/dL
UACR change from baseline, LS mean (SE) (week 12): −11.76(4.47) g/kg
UGCR change from baseline, LS mean (SE) (week 12): 44.84(2.02) mg/mg
adiponectin change from baseline, LS mean (SE) (week 12): 0.70(0.33) μg/mL
body weight change from baseline, LS mean (SE) (week 12): −2.71(0.19) kg
diastolic blood pressure change from baseline, LS mean (SE) (week 12): −2.26(0.66) mmHg
fasting C-peptide change from baseline, LS mean (SE) (week 12): −0.07(0.02) ng/ml
leptin change from baseline, LS mean (SE) (week 12): −1.69(0.47) ng/ml
systolic blood pressure change from baseline, LS mean (SE) (week 12): −5.06(0.85) mmHg
total cholesterol change from baseline, LS mean (SE) (week 12): 5.40(1.98) mg/dL
triglyceride change from baseline, LS mean (SE) (week 12): −12.02(5.12) mg/dL
Change from baseline in HDL-C, ANCOVA LS mean [2]: 2.84 mg/dL
Change from baseline in HDL-C, Mean [2]: 2.65 mg/dL
Change from baseline in HDL-C, Median [2]: 2.00 mg/dL
Change from baseline in LDL-C, ANCOVA LS mean [2]: 2.71 mg/dL
Change from baseline in LDL-C, Mean [2]: 2.45 mg/dL
Change from baseline in LDL-C, Median [2]: 4.00 mg/dL
Change from baseline in total cholesterol, ANCOVA LS mean [2]: 5.40 mg/dL
Change from baseline in total cholesterol, Mean [2]: 4.61 mg/dL
Change from baseline in total cholesterol, Median [2]: 6.00 mg/dL
Change from baseline in triglycerides, ANCOVA LS mean [2]: 12.02 mg/dL
Change from baseline in triglycerides, Mean [2]: -16.03 mg/dL
Change from baseline in triglycerides, Median [2]: -6.00 mg/dL
Fasting HDL-C, Mean [2]: 50.08 mg/dL
Fasting HDL-C, Median [2]: 49.00 mg/dL
Fasting LDL-C, Mean [2]: 79.86 mg/dL
Fasting LDL-C, Median [2]: 72.50 mg/dL
Fasting total cholesterol, Mean [2]: 148.41 mg/dL
Fasting triglycerides, Mean [2]: 116.46 mg/dL
Fasting triglycerides, Median [2]: 104.50 mg/dL
fasting Total cholesterol, Median [2]: 140.50 mg/dL
Change from baseline in diastolic blood pressure, ANCOVA LS mean [3]: −2.26 mmHg
Change from baseline in diastolic blood pressure, Mean [3]: −1.88 mmHg
Change from baseline in diastolic blood pressure, Median [3]: −1.00 mmHg
Diastolic blood pressure, Mean [3]: 71.99 mmHg
Diastolic blood pressure, Median [3]: 72.00 mmHg
Change from baseline in systolic blood pressure, ANCOVA LS mean [4]: −5.06 mmHg
Change from baseline in systolic blood pressure, Mean [4]: −4.43 mmHg
Change from baseline in systolic blood pressure, Median [4]: −4.00 mmHg
Systolic blood pressure, Mean [4]: 119.51 mmHg
Systolic blood pressure, Median [4]: 120.00 mmHg
Adiponectin, Mean (week 12, per-protocol set): 6.97 µg/mL
Adiponectin, Median (week 12, per-protocol set): 6.27 µg/mL
Change from baseline in HOMA-IR, ANCOVA LS mean (week 12, per-protocol set): −1.05
Change from baseline in HOMA-IR, Mean (week 12, per-protocol set): −1.06
Change from baseline in HOMA-IR, Median (week 12, per-protocol set): −0.76
Change from baseline in HOMA-β, ANCOVA LS mean (week 12, per-protocol set): 5.23
Change from baseline in HOMA-β, Mean (week 12, per-protocol set): 4.70
Change from baseline in HOMA-β, Median (week 12, per-protocol set): 3.50
Change from baseline in UACR, ANCOVA LS mean (week 12, per-protocol set): -11.76 g/kg
Change from baseline in UACR, Mean (week 12, per-protocol set): -7.42 g/kg
Change from baseline in UACR, Median (week 12, per-protocol set): 0.20 g/kg
Change from baseline in UGCR, ANCOVA LS mean (week 12, per-protocol set): 44.84 mg/mg
Change from baseline in UGCR, Mean (week 12, per-protocol set): 43.19 mg/mg
Change from baseline in UGCR, Median (week 12, per-protocol set): 41.69 mg/mg
Change from baseline in adiponectin, ANCOVA LS mean (week 12, per-protocol set): 0.70 µg/mL
Change from baseline in adiponectin, Mean (week 12, per-protocol set): 0.63 µg/mL
Change from baseline in adiponectin, Median (week 12, per-protocol set): 0.43 µg/mL
Change from baseline in leptin, ANCOVA LS mean (week 12, per-protocol set): -1.69 ng/mL
Change from baseline in leptin, Mean (week 12, per-protocol set): -1.82 ng/mL
Change from baseline in leptin, Median (week 12, per-protocol set): -0.96 ng/mL
HOMA-IR (insulin resistance), Mean (week 12, per-protocol set): 1.80
HOMA-IR (insulin resistance), Median (week 12, per-protocol set): 1.55
HOMA-β (beta-cell function), Mean (week 12, per-protocol set): 45.17
HOMA-β (beta-cell function), Median (week 12, per-protocol set): 38.20
Leptin, Mean (week 12, per-protocol set): 9.03 ng/mL
Leptin, Median (week 12, per-protocol set): 7.69 ng/mL
UACR, Mean (week 12, per-protocol set): 27.28 g/kg
UACR, Median (week 12, per-protocol set): 11.80 g/kg
UGCR, Mean (week 12, per-protocol set): 44.72 mg/mg
UGCR, Median (week 12, per-protocol set): 41.80 mg/mg
Body weight, Mean [5]: 64.64 kg
Change from baseline in FPG, ANCOVA LS mean [5]: -24.42 mg/dL
Change from baseline in FPG, Mean [5]: -25.28 mg/dL
Change from baseline in FPG, Median [5]: -20.00 mg/dL
Change from baseline in HbA1c, ANCOVA LS mean [5]: −0.83 % p
Change from baseline in HbA1c, Mean [5]: −0.87 % p
Change from baseline in HbA1c, Median [5]: −0.85 % p
Change from baseline in body weight, ANCOVA LS mean [5]: -2.71 kg
Change from baseline in body weight, Mean [5]: -2.58 kg
Change from baseline in body weight, Median [5]: -2.50 kg
Change from baseline in fasting C-peptide, ANCOVA LS mean [5]: -0.07 ng/mL
Change from baseline in fasting C-peptide, Mean [5]: -0.06 ng/mL
Change from baseline in fasting C-peptide, Median [5]: -0.03 ng/mL
FPG, Mean [5]: 115.24 mg/dL
FPG, Median [5]: 112.00 mg/dL
Fasting C-peptide, Mean [5]: 0.63 ng/mL
Fasting C-peptide, Median [5]: 0.60 ng/mL
HbA1c, Mean [5]: 6.96%
HbA1c, Median [5]: 6.84%
Subjects achieving HbA1c target of <6.5%, (%) [5]: 17.07%
